Measured values as given in patent US8153615B2, “Synthesis of glycerolipid carbamates and dicarbamates and their use as an antitumor compounds” (priority 2005, dated 2012).
pIC50: −log10 of the molar value. Several values for one entry are separate records, joined by “and”; a condition that tells them apart may be missing. Identical values can stand only once.

Tests used:
SK-N-MC cells = conditions: read-out: IC50, antiproliferative effect, SK-N-MC (neuronal); proliferating cells, 0-20 μM, 48 h, CyQuant assay
Protocol: (§1) Specifically, proliferating cells in 48-well plates were incubated with 0-20 μM of the compound for 48 hours. The cell numbers present were determined by the CyQuant™ assay (Invitrogen), and the increase in numbers were expressed relative to the controls receiving only the vehicle (0.1% ethanol).
(§2) Proliferating cells in 48-well plates were incubated with 0-20 μM of the compound for 48 h. The cell numbers present were determined by the CyQuant™ assay (Invitrogen), and the increase in numbers were expressed relative to the controls receiving only the vehicle (0.1% ethanol).

SK-N-SH cells = conditions: read-out: IC50, antiproliferative effect, SK-N-SH (neuronal); proliferating cells, 0-20 μM, 48 h, CyQuant assay
Protocol: as §1, §2

HepG2 cells = conditions: read-out: IC50, antiproliferative effect, HepG2 (liver); proliferating cells, 0-20 μM, 48 h, CyQuant assay
Protocol: as §1, §2

DU145 cells [1] = assay: Antiproliferative evaluation, CyQuant assay, DU145; type: cell-based, human; conditions: exponentially growing cells, 48 h incubation, read-out: IC50, growth inhibition, DU145, prostate
Protocol: (§3) FIG. 2 is a graphical depiction of the results of an antiproliferative evaluation of compound I against the following cancer cell lines: DU145, PC3, BT549, HeLa, MDA-MB-231, A549, and MCF-7. Cells growing exponentially in 48-well plates were incubated with different concentrations of compound I for 48 h. The increases in cell numbers were determined by the CyQuant assay and are expressed as a percentage of the increase in control wells with the vehicle (0.1% ethanol). The results are the average+SD from six different wells.
as §3, with “FIG. 3” for “FIG. 2”, “compound II” for “compound I”
as §3, with “FIG. 4” for “FIG. 2”, “compound III” for “compound I”
as §3, with “FIG. 5” for “FIG. 2”, “compound IV” for “compound I”
as §3, with “FIG. 6” for “FIG. 2”, “compound V” for “compound I”
(§4) We screened the compounds against a panel of human cancer cell lines derived from a number of tissues. […]

[2] = test system: prostate cancer cells (DU145, PC3) relative to other cancer cell lines; assay: Prostate cancer cell selectivity across the panel of human cancer cell lines; type: cell-based; conditions: prostate lines versus other cancer cell lines, 48 h
From the text: (§5) We screened the compounds against a panel of human cancer cell lines derived from a number of tissues. These were breast (MCF-7, BT549, SKBr3, MDA-MB-231), lung (A549), cervix (HeLa), and prostate (DU145, PC3) cancer cell lines. […] In some cases, the IC50 values were much lower than values reported for ET-18-OCH3, indicative of a greater degree of potency of these new compounds. The most striking observation is that the greatest inhibition of cell growth was found when the two prostate cell lines, DU145 and PC3, were treated with these compounds. […] Because hormone-insensitive prostate cancer cells are highly sensitive to the active compounds described herein, (compounds I, II, and III), we postulate that it may be possible to selectively kill prostate cancer cells with low concentrations without harming other cells in the body. The prostate selectivity observed with compound I was also observed with compounds II and III (Table 1 and FIGS. 3 and 4) and distinguishes these compounds from other antitumor compounds.

A549 cells = assay: Antiproliferative evaluation, CyQuant assay, A549; type: cell-based, human; conditions: exponentially growing cells, 48 h incubation, read-out: IC50, growth inhibition, A549, lung
Protocol: as §3
as §3, with “FIG. 3” for “FIG. 2”, “compound II” for “compound I”
as §3, with “FIG. 4” for “FIG. 2”, “compound III” for “compound I”
as §3, with “FIG. 5” for “FIG. 2”, “compound IV” for “compound I”
as §3, with “FIG. 6” for “FIG. 2”, “compound V” for “compound I”, “wells. […]” for “wells.”

PC3 cells = assay: Antiproliferative evaluation, CyQuant assay, PC3; type: cell-based, human; conditions: exponentially growing cells, 48 h incubation, read-out: IC50, growth inhibition, PC3, prostate
Protocol: as §3
as §3, with “FIG. 3” for “FIG. 2”, “compound II” for “compound I”
as §3, with “FIG. 4” for “FIG. 2”, “compound III” for “compound I”
as §3, with “FIG. 5” for “FIG. 2”, “compound IV” for “compound I”
as §3, with “FIG. 6” for “FIG. 2”, “compound V” for “compound I”
as §4

MCF-7 cells = assay: Antiproliferative evaluation, CyQuant assay, MCF-7; type: cell-based, human; conditions: exponentially growing cells, 48 h incubation, read-out: IC50, growth inhibition, MCF-7, breast
Protocol: as §3
as §3, with “FIG. 3” for “FIG. 2”, “compound II” for “compound I”
as §3, with “FIG. 4” for “FIG. 2”, “compound III” for “compound I”
as §3, with “FIG. 5” for “FIG. 2”, “compound IV” for “compound I”
as §3, with “FIG. 6” for “FIG. 2”, “compound V” for “compound I”, “wells. […]” for “wells.”

MDA-MB-231 cells = assay: Antiproliferative evaluation, CyQuant assay, MDA-MB-231; type: cell-based, human; conditions: exponentially growing cells, 48 h incubation, read-out: IC50, growth inhibition, MDA-MB-231, breast
Protocol: as §3
as §3, with “FIG. 3” for “FIG. 2”, “compound II” for “compound I”, “ethanol). […]” for “ethanol). The results are the average+SD from six different wells.”
(§6) FIG. 4 is a graphical depiction of the results of an antiproliferative evaluation of compound III against the following cancer cell lines: DU145, PC3, BT549, HeLa, MDA-MB-231, A549, and MCF-7. […] The increases in cell numbers were determined by the CyQuant assay and are expressed as a percentage of the increase in control wells with the vehicle (0.1% ethanol). […]
as §6, with “FIG. 5” for “FIG. 4”, “compound IV” for “compound III”
as §6, with “FIG. 6” for “FIG. 4”, “compound V” for “compound III”

DU145 cells [3] = assay: Toxicity (loss of viability) to DU145 cells; type: cell-based, human
From the text: as §5

HeLa cells = assay: Antiproliferative evaluation, CyQuant assay, HeLa; type: cell-based, human; conditions: exponentially growing cells, 48 h incubation, read-out: IC50, growth inhibition, HeLa, cervix
Protocol: as §3
as §3, with “FIG. 3” for “FIG. 2”, “compound II” for “compound I”, “ethanol). […]” for “ethanol). The results are the average+SD from six different wells.”
as §6
as §6, with “FIG. 5” for “FIG. 4”, “compound IV” for “compound III”
as §6, with “FIG. 6” for “FIG. 4”, “compound V” for “compound III”

BT549 cells = assay: Antiproliferative evaluation, CyQuant assay, BT549; type: cell-based, human; conditions: exponentially growing cells, 48 h incubation, read-out: IC50, growth inhibition, BT549, breast
Protocol: as §3
as §3, with “FIG. 3” for “FIG. 2”, “compound II” for “compound I”, “ethanol). […]” for “ethanol). The results are the average+SD from six different wells.”
as §6
as §6, with “FIG. 5” for “FIG. 4”, “compound IV” for “compound III”
as §6, with “FIG. 6” for “FIG. 4”, “compound V” for “compound III”

Compound	pIC50 (SK-N-MC cells)	pIC50 (SK-N-SH cells)	pIC50 (HepG2 cells)	pIC50 (DU145 cells [1])	prostate cancer cell selectivity [2]	pIC50 (A549 cells)	pIC50 (PC3 cells)	pIC50 (MCF-7 cells)	pIC50 (MDA-MB-231 cells)	concentration toxic to the cells (loss of viability) (DU145 cells [3])	pIC50 (HeLa cells)	pIC50 (BT549 cells)
1-O-(7-N, N-dimethylamino-3-pentadecanoyl-1-napthyl)-2-O-methyl-sn-glycero-3-phosphocholine	< 4.70	> 4.70	< 4.70	5.46	highly selective for prostate cancer cells	< 4.70	5.72	< 4.70				
CCCCCCCCCCCCCCCCOC[C@@H](CCP(=O)([O-])OCC[N+](C)(C)C)OC(=O)NC [Compound I, 2′-(trimethylammonio)ethyl 4-hexadecyloxy-3(R)—N-methylcarbamoyl-1-butanephosphonate]				6.00 and 5.92		4.97	5.92	5.40	5.43	2.5 µM	5.48	5.36
CCCCCCCCCCCCCCCCOC[C@H](CCP(=O)([O-])OCC[N+](C)(C)C)OC(=O)NC [Compound II, 2′-(trimethylammonio)ethyl 4-hexadecyloxy-3(S)—N-methylcarbamoyl-1-butane-phosphonate]				5.68		< 4.70	5.60	5.00	5.21		5.10	5.17
CCCCCCCCCCCCCCCCOC[C@@H](COP(=O)([O-])OCC[N+](C)(C)C)NC(=O)OC [Compound III, 2′-(trimethylammonio)ethyl 2(S)—(N-methoxycarbonylamido)-3-hexadecyloxypropanephosphate]				5.62	greatest prostate cancer cell selectivity	< 4.70	5.72	5.04	4.98		4.71	4.87
